Data set [1] in a line: Pharmacokinetics in male Sprague Dawley rats. The format is in vivo. To be noted: rat, sc, mean, single subcutaneous administration of 200 nMol/kg, plasma; for half-life: read-out: t½ (converted). How it is done:
The pharmacokinetics of the exemplary analogs are evaluated following a single subcutaneous administration of […] to male Sprague Dawley rats. Blood samples are collected over 120 hours, and resulting individual plasma concentrations are used to calculate pharmacokinetic parameters. Peptide plasma (K3 EDTA) concentrations are determined using a qualified LC/MS method that measured the intact mass of the ANP polypeptide. Each peptide and an analog as an internal standard are extracted from 100% specie specified plasma using methanol with 0.1% formic acid. A Thermo Q-Exactive, High Resolution Instrument, and a Thermo Easy Spray PepMap are combined for LC/MS detection.

For another data set, the target named is T1, rat NPRA (Rattus norvegicus, UniProt P18910).
T1 construct: Full-Length cDNA Cloning and Generation of Cell Lines Overexpressing Natriuretic Peptide Receptors (NPRs); expressed in transfected cells; host or cells: Jump-in T-Rex HEK293 cells, pJTI R4 CMV-TO MCS pA vector, tetracycline induction
T1 sequence (P18910 29-1057): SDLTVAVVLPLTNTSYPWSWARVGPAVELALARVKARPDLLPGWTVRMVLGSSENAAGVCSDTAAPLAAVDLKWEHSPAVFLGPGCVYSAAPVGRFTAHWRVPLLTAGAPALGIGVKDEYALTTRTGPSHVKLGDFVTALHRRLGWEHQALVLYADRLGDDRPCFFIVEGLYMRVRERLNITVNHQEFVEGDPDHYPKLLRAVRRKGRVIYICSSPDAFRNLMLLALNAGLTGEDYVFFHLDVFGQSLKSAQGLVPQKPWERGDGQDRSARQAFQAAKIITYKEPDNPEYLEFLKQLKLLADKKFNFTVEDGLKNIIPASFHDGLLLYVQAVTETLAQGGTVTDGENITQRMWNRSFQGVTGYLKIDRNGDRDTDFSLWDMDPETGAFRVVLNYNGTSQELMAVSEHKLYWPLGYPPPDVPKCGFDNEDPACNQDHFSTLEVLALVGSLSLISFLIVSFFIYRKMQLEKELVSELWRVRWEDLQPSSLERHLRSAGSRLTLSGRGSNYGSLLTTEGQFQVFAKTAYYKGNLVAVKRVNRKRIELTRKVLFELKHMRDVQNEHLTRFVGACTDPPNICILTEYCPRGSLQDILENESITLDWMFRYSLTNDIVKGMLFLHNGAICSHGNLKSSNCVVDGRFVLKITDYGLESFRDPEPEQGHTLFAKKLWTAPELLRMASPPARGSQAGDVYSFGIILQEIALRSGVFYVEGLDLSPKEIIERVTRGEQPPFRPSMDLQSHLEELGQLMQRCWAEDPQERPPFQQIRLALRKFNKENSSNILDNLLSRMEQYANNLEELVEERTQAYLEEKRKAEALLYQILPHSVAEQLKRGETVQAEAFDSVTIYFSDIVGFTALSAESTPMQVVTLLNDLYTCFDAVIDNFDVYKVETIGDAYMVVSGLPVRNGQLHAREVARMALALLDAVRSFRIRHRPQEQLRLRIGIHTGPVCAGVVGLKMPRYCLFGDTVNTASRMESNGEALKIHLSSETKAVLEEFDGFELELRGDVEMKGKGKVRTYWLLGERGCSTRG
Nature of the data set: Rat NPRA cGMP activity assay (HTRF) in HEK293 cells overexpressing NPRA. The data set is classed as cell-based. A digest of the protocol:
(§1)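 Tetracycline-induced (300 ng/mL, 48 h) T-Rex HEK293 cells expressing NPRA, 4000 cells/well, treated 40 min at room temperature with polypeptide (8 points, 10 μM to 1 pM) in HBSS/HEPES buffer with 0.5 mM IBMX, pH 7.4. cGMP by HTRF, normalised to 100 nM amidated rat ANP and buffer.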
(In general: TR-FRET usually uses a lanthanide donor and a delayed reading to cut background.)

The target of the next data set is T2, human NPRA (Homo sapiens, UniProt P16066).
T2 construct: Full-Length cDNA Cloning and Generation of Cell Lines Overexpressing Natriuretic Peptide Receptors (NPRs); expressed in transfected cells; host or cells: Jump-in T-Rex HEK293 cells, pJTI R4 CMV-TO MCS pA vector, tetracycline induction
T2 sequence (P16066 33-1061): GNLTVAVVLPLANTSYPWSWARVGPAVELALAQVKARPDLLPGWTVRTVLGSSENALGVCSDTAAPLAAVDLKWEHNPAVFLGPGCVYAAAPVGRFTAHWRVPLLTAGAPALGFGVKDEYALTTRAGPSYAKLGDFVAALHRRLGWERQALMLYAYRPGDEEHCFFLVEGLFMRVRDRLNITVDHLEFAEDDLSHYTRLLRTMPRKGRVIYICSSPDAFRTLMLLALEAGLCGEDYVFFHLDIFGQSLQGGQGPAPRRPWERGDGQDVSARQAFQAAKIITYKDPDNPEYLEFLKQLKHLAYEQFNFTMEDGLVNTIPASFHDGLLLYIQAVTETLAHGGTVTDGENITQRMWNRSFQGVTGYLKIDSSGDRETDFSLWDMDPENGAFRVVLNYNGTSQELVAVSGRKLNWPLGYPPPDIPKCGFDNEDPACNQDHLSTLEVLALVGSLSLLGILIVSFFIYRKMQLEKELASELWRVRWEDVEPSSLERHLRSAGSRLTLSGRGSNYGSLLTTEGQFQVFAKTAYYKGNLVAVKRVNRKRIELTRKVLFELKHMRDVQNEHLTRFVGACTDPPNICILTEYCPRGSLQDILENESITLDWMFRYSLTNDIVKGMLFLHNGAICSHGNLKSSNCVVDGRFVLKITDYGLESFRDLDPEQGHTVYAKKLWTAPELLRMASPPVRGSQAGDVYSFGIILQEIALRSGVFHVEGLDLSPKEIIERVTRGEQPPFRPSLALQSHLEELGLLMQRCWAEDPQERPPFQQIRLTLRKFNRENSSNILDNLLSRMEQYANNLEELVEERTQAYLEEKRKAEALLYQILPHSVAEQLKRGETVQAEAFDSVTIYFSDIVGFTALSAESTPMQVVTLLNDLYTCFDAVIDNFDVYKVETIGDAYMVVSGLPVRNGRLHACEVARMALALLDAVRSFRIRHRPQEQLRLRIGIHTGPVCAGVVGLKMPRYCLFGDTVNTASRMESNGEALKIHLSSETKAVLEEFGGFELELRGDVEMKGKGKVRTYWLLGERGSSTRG
Description: Human NPRA cGMP activity assay (HTRF) in HEK293 cells overexpressing NPRA. The data set is classed as cell-based. As to conditions: assay buffer with 0.1% casein. A digest of the protocol: as §1

Where two headings read alike, the source gives them in different places. Numbered stars: 1 amine (or outer) side, 2 acyl side, 3 side chain; on linkers, the order of the positions; unused ones are H or OH. Bridge positions count the residues as written; N and C are the ends. Square brackets hold non-standard residues; d marks the D form. * marks the point of attachment. PEG24 = NCCOCCOCCOCCOCCOCCOCCOCCOCCOCCOCCOCCOCCOCCOCCOCCOCCOCCOCCOCCOCCOCCOCCOCCOCCC(=O)O; C20 diacid = O=C(O)CCCCCCCCCCCCCCCCCCC(=O)*; γGlu = O=C(O)[C@H](CCC(=O)[*:2])N[*:1]; 4Pal = N[C@@H](Cc1ccncc1)C(=O)O; CH2 = C([*:1])[*:2]; βAla = NCCC(=O)O

In the case of “{C20 diacid-γGlu}-EKEKEKG[PEG24]S[4Pal]RRSSCFGGRIDRIGHQSGLGCPSFRHGGKSSGAPPPS-NH2 (linker 15-31 via CH2) [Example 75]”, in data set [1], the CL/F (in general, the apparent clearance, not corrected for the fraction that reaches the circulation) is 0.182 mL/min/kg and the half-life was 17 h.

As to `CC[C@H](C)[C@@H]1NC(=O)[C@H](CCCNC(=N)N)NC(=O)[C@H](CC(=O)O)NC(=O)[C@H]([C@@H](C)CC)NC(=O)[C@H](CCCNC(=N)N)NC(=O)CNC(=O)CNC(=O)[C@H](Cc2ccccc2)NC(=O)[C@@H](NC(=O)[C@H](CO)NC(=O)[C@H](CO)NC(=O)[C@H](CCCNC(=N)N)NC(=O)[C@H](CCCNC(=N)N)NC(=O)[C@H](Cc2ccncc2)NC(=O)[C@H](CO)NC(=O)COCCOCCNC(=O)COCCOCCNC(=O)COCCOCCNC(=O)COCCOCCNC(=O)COCCOCCNC(=O)COCCOCCNC(=O)CNC(=O)[C@H](CCCCN)NC(=O)[C@H](CCC(=O)O)NC(=O)[C@H](CCCCN)NC(=O)[C@H](CCC(=O)O)NC(=O)[C@H](CCCCN)NC(=O)[C@H](CCC(=O)O)NC(=O)CC[C@H](NC(=O)CCCCCCCCCCCCCCCCCCC(=O)O)C(=O)O)CSCSC[C@@H](C(=O)N2CCC[C@H]2C(=O)N[C@@H](CO)C(=O)N[C@@H](Cc2ccccc2)C(=O)N[C@@H](CCCNC(=N)N)C(=O)N[C@@H](Cc2c[nH]cn2)C(=O)NCC(=O)N[C@@H](CO)C(=O)N2CCC[C@H]2C(=O)N[C@@H](CO)C(=O)N[C@@H](CO)C(=O)NCC(=O)N[C@@H](C)C(=O)N2CCC[C@H]2C(=O)N2CCC[C@H]2C(=O)N2CCC[C@H]2C(=O)N[C@@H](CO)C(N)=O)NC(=O)CNC(=O)[C@H](CC(C)C)NC(=O)CNC(=O)[C@H](CO)NC(=O)[C@H](Cc2ccc(O)cc2)NC(=O)[C@H](Cc2c[nH]cn2)NC(=O)CNC1=O` [Example 96], the EC50 was determined as 12200 pM on rat NPRA (cGMP Assay (EC50, pM) w/Casein rNPRA, assay buffer with 0.1% casein) and 720 pM on human NPRA (cGMP Assay (EC50, pM) w/Casein hNPRA).

With `CC[C@H](C)[C@@H]1NC(=O)[C@H](CCCNC(=N)N)NC(=O)[C@H](CC(=O)O)NC(=O)[C@H]([C@@H](C)CC)NC(=O)[C@H](CCCNC(=N)N)NC(=O)CNC(=O)CNC(=O)[C@H](Cc2ccccc2)NC(=O)[C@@H](NC(=O)[C@H](CO)NC(=O)[C@H](CO)NC(=O)[C@H](CCCNC(=N)N)NC(=O)CCNC(=O)[C@H](CCCCN)NC(=O)[C@H](CCC(=O)O)NC(=O)CNC(=O)[C@H](CCCCN)NC(=O)[C@H](CCC(=O)O)NC(=O)[C@H](CCCCN)NC(=O)[C@H](CCC(=O)O)NC(=O)[C@H](CCCCN)NC(=O)[C@H](CCC(=O)O)NC(=O)CC[C@H](NC(=O)CCCCCCCCCCCCCCCCC(=O)O)C(=O)O)CSCSC[C@@H](C(=O)N2CCC[C@H]2C(=O)N[C@@H](CO)C(=O)N[C@@H](Cc2ccccc2)C(=O)N[C@@H](CCCNC(=N)N)C(=O)N[C@@H](Cc2c[nH]cn2)C(=O)NCC(=O)NCC(=O)N[C@@H](CCCCN)C(=O)N[C@@H](CO)C(=O)N[C@@H](CO)C(=O)NCC(=O)N[C@@H](C)C(=O)N2CCC[C@H]2C(=O)N2CCC[C@H]2C(=O)N2CCC[C@H]2C(=O)N[C@@H](CO)C(N)=O)NC(=O)CNC(=O)[C@H](CC(C)C)NC(=O)CNC(=O)[C@H](CO)NC(=O)[C@H](Cc2ccc(O)cc2)NC(=O)[C@H](Cc2c[nH]cn2)NC(=O)CNC1=O` [Example 76], the half-life in data set [1] (in vivo) is 30 h. The same compound gave an apparent clearance CL/F in data set [1] of 0.118 mL/min/kg.

Regarding “{C20 diacid-γGlu}-EKEKEKG[PEG24]EK[βAla]RSSCFGGKIDRIGHQSGLGCPSFRHGSPSSGAPPPS-NH2 (linker 15-31 via CH2) [Example 7]”, in data set [1], the apparent clearance (CL/F) was 0.055 mL/min/kg and the half-life was 19 h.

As for `CC[C@H](C)[C@@H]1NC(=O)[C@H](CCCNC(=N)N)NC(=O)[C@H](CC(=O)O)NC(=O)[C@H]([C@@H](C)CC)NC(=O)[C@H](CCCNC(=N)N)NC(=O)[C@H](CCCCN)NC(=O)CNC(=O)[C@H](Cc2ccccc2)NC(=O)[C@@H](NC(=O)[C@H](CO)NC(=O)[C@H](CO)NC(=O)[C@H](CCCNC(=N)N)NC(=O)[C@H](CCCNC(=N)N)NC(=O)[C@H](Cc2ccncc2)NC(=O)[C@H](CO)NC(=O)COCCOCCNC(=O)COCCOCCNC(=O)COCCOCCNC(=O)COCCOCCNC(=O)COCCOCCNC(=O)COCCOCCNC(=O)COCCOCCNC(=O)COCCOCCNC(=O)CNC(=O)[C@H](CCCCN)NC(=O)[C@H](CCC(=O)O)NC(=O)[C@H](CCCCN)NC(=O)[C@H](CCC(=O)O)NC(=O)[C@H](CCCCN)NC(=O)[C@H](CCC(=O)O)NC(=O)CC[C@H](NC(=O)CCCCCCCCCCCCCCCCCCC(=O)O)C(=O)O)CSCSC[C@@H](C(=O)N2CCC[C@H]2C(=O)N[C@@H](CO)C(=O)N[C@@H](Cc2ccccc2)C(=O)N[C@@H](CCCNC(=N)N)C(=O)N[C@@H](Cc2c[nH]cn2)C(=O)NCC(=O)NCC(=O)N[C@@H](CCCCN)C(=O)N[C@@H](CO)C(=O)N[C@@H](CO)C(=O)NCC(=O)N[C@@H](C)C(=O)N2CCC[C@H]2C(=O)N2CCC[C@H]2C(=O)N2CCC[C@H]2C(=O)N[C@@H](CO)C(N)=O)NC(=O)CNC(=O)[C@H](CC(C)C)NC(=O)CNC(=O)[C@H](CO)NC(=O)[C@H](CCC(N)=O)NC(=O)[C@H](Cc2c[nH]cn2)NC(=O)CNC1=O` [Example 87], the EC50 was 463000 pM on rat NPRA (assay buffer with 0.1% BSA, read-out: cGMP Assay (EC50, pM) w/BSA rNPRA) and 621 pM at human NPRA (read-out: cGMP Assay (EC50, pM) w/Casein hNPRA).

(Values after patent US20240174727A1, “LONG-ACTING NATRIURETIC PEPTIDES AND USES THEREOF” (Eli Lilly and Company, priority 2022, published 2024).)
